The source of these data is patent US7807845B2, “Resistance-repellent retroviral protease inhibitors” (priority 2004, dated 2010).

pIC50, pKi: −log10 of the molar value. Where only a bound is given, the exact number is not on record here.

For one assay, the system named is WT=HIVHXB2. As to the kind of experiment: Antiviral assay in MT-4 cells (MTT), WT virus. In kind it is cell-based, HIV. As to conditions: Human immunodeficiency virus 1, MT4, 120 h, HIVHXB2, 5 days. Here is the method:
(§1) MT-4 cells were obtained from the AIDS Research and Reference Reagent Program (ARRRP, Division of AIDS, NIAID, NIH: MT-4 from Dr. D. Richman). Cells were propagated in RPMI 1640 supplemented with 10% fetal bovine serum, 50U of penicillin and 50 μg of streptomycin per ml (Invitrogen, Carlsbad Calif.). The following HIV viruses were used for testing of antiviral potency of compounds: WT=HIVHXB2; recombinant HIVHXB2 virus from drug resistant patient isolates; HIVmutant10 (16 mutations); HIVmutant8 (14 mutations); HIVmutant9 (10 mutations).
(§2) The potency of test compound was determined as previously described (ref 1-3) with minor modifications. MT-4 cells (1.5×10^4/ml) were exposed to 200 50 % tissue culture infective doses (TCID50) of viruses in the presence of various concentrations of test compound in 96 well microtiter plates and incubated at 37° C. for 5 days. 3-(4,5-dimethylthiazol-2-yl)-2,5-diphenytetrazolium bromide (MTT) solution was added to a final concentration of 0.75 mg/ml, and plates were incubated 1 hour. After incubation cells were dissolved in isopropanol/Triton-X 100/HCl (1000:50:25) solution. Absorbance was monitored in a microplate reader (Spectramax, Molecular Devices) at 540 nm and 690 nm. Cytotoxicity of compounds was tested in a similar assay in the absence of virus.

The next assay deals with mutant HIV PR (Mutant 8) (Human immunodeficiency virus type 1 group M subtype B, UniProt P04585). Kind of assay: HIV PR inhibition assay, Mutant 8. As to conditions: read-out: Ki Mutant 8; recombinant mutant HIV PR, fluorogenic substrate, pH 6.5. In kind it is biochemical. Here is the method:
(§3) Expression and purification of WT and mutant HIV PR. Recombinant wild type and mutant HIV PRs were expressed using pET21 vector (Novagen) in E. coli cells, and purified and refolded as described previously (Gulnik et al, 1995). The cells were resuspended in 50 mM tris-HCl buffer, pH 8.0, 25 mM NaCl, 0.2% β-mercaptoethanol (buffer A), sonicated and centrifuged. Inclusion bodies were washed first with buffer A, then with buffer A containing respectively 0.1% Triton X-100, 1 M NaCl, 1 M urea, and finally with buffer A alone. Purified inclusion bodies were solubilized by addition of buffer A containing 8 M urea at room temperature. The solution was clarified by centrifugation and loaded onto 2.6×9.5 cm Q-Sepharose column. Flow-through fractions were collected and dialyzed against 3 changes of refolding buffer, which consists of 25 mM Na-phosphate, pH 7.0, 25 mM NaCl, 0.2% β-mercaptoethanol and 10% glycerol, aliquoted and stored at −80° C.
(§4) Inhibition constants were determined using the fluorogenic substrate ArgGlu(EDANS)[…]DABCYL)Arg (Amichem, USA). HIV Protease was preincubated for 0.5-1 min at ambient temperature on a 96 well plate with different concentrations of inhibitor in 0.05 M sodium phosphate buffer, pH 6.5, containing 20 mM NaCl, 2 mM DTT and 0.01% Tween-20. The reaction was initiated by the addition of substrate. Final enzyme concentration was 2-5 nM for WT and 2-30 nM for mutants. Substrate concentration was 20 uM and DMSO concentration 2%. The increase in fluorescence intensity at the emission maximum of 520 nm (excitation wavelength 340 nm, cut-off filter 495 nm) was monitored as a function of time using a Spectramax Gemini fluorescence plate reader (Molecular Devices, CA USA). The initial rate of hydrolysis was calculated by first-degree polynomial fit using SoftMAX operating software. Data were fitted to the Michaelis-Menten equation for competitive inhibitors. For tight-binding inhibitors the data were fitted by nonlinear regression analysis to the equation V=V0/2Et({[Ki(1+S/Km)+It−Et]^2+4Ki(1+S/Km)Et}^1/2−[Ki(1+S/Km)+It−Et]) (Williams and Morrison, 1979) with the program GraFit, version 5 (Erithacus Software Limited, UK), where V and V0 are initial velocities with and without inhibitor, Km is the Michaelis-Menten constant and S, Et and It are the concentrations of substrate, active enzyme and inhibitor respectively.

Assay [1] deals with HIVmutant9 (10 mutations). As to the kind of experiment: Antiviral assay in MT-4 cells (MTT), mutant 9 virus. The assay is classed as cell-based, HIV. The settings on record: Human immunodeficiency virus 1, MT4, 120 h, read-out: IC50 Mutant 9. As for the experimental part: as §1, §2
Assay [2] addresses mutant HIV PR (Mutant 10) (Human immunodeficiency virus type 1 group M subtype B, UniProt P04585). As to the kind of experiment: HIV PR inhibition assay, Mutant 10. As to conditions: read-out: Ki Mutant 10; recombinant mutant HIV PR, fluorogenic substrate, pH 6.5. In kind it is biochemical. As for the experimental part:
as §3, §4

The next assay concerns the target mutant HIV PR (Mutant 9) (Human immunodeficiency virus type 1 group M subtype B, UniProt P04585). Kind of assay: HIV PR inhibition assay, Mutant 9. In kind it is biochemical. The settings on record: read-out: Ki Mutant 9; recombinant mutant HIV PR, fluorogenic substrate, pH 6.5. As for the experimental part:
as §3, §4

A further assay addresses T1, wild type HIV PR (Human immunodeficiency virus type 1 group M subtype B, UniProt P04585).
T1 construct: Recombinant wild type and mutant HIV PRs were expressed using pET21 vector (Novagen) in E. coli cells; made in house
As to the kind of experiment: HIV PR inhibition assay, wild type. In kind it is biochemical. Here is the method: as §3, §4

The test system of assay [3] is HIVmutant8 (14 mutations). Kind of assay: Antiviral assay in MT-4 cells (MTT), mutant 8 virus. In kind it is cell-based, HIV. As to conditions: Human immunodeficiency virus 1, MT4, 120 h, read-out: IC50 Mutant 8. As for the experimental part:
as §1, §2

For assay [4], the system named is HIVmutant10 (16 mutations). As to the kind of experiment: Antiviral assay in MT-4 cells (MTT), mutant 10 virus. The assay is classed as cell-based, HIV. As to conditions: Human immunodeficiency virus 1, MT4, 120 h, read-out: IC50 Mutant 10. As for the experimental part: as §1, §2

On to `CCCC(C)NC=C1C(=O)Nc2ccc(S(=O)(=O)N(CC(C)C)CC(O)C(Cc3ccccc3)NC(=O)OC3COC4OCCC34)cc21` (stereo not shown) [Compound 108], for which the pIC50 (as a rule, −log10 of the IC50, conventionally taken in molar units) in the assay with WT=HIVHXB2 was 8.05; in assay [1], 7.82; in assay [3] it was 7.46; in assay [4], 7.10. Further, the pKi (in general, the negative decadic logarithm of the Ki, by convention in mol/L) at mutant HIV PR (Mutant 8) is above 9.52; in assay [2] it was above 9.00; on mutant HIV PR (Mutant 9), above 10.00; on wild type HIV PR, above 10.00.
Regarding `CCCCNC=C1C(=O)Nc2ccc(S(=O)(=O)N(CC(C)C)CC(O)C(Cc3ccccc3)NC(=O)OC3COC4OCCC34)cc21` (stereo not shown) [Compound 57, {1-Benzyl-3-[(3-butylaminomethylene-2-oxo-2,3-dihydro-1H-indole-5-sulfonyl)-isobutyl-amino]-2-hydroxy-propyl}-carbamic acid hexahydro-furo[2,3-b]furan-3-yl ester], the negative-log IC50 (pIC50) in the assay with WT=HIVHXB2 was 7.89; in assay [1], 7.96; in assay [3] it was 7.60; in assay [4] it was 7.40. Further, the pKi was above 9.52 on mutant HIV PR (Mutant 8), above 9.00 in assay [2], 9.72 at mutant HIV PR (Mutant 9) and above 10.00 on wild type HIV PR.
Take `CC(C)CN(C=C1C(=O)Nc2ccc(S(=O)(=O)N(CC(C)C)CC(O)C(Cc3ccccc3)NC(=O)OC3COC4OCCC34)cc21)CC(C)C` (stereo not shown) [Compound 113]: the negative-log IC50 (pIC50) in the assay with WT=HIVHXB2 was 8.10; in assay [1] it was 7.64; in assay [3], 7.47; in assay [4] it was 7.05. Besides, the pKi on mutant HIV PR (Mutant 8) was above 9.52; in assay [2] it was 8.54; on mutant HIV PR (Mutant 9) it was 9.68; at wild type HIV PR, above 10.00.
As for `CC(C)CN(CC(O)C(Cc1ccccc1)NC(=O)OC1COC2OCCC12)S(=O)(=O)c1ccc2c(c1)C(=CNCC1CC1)C(=O)N2` (stereo not shown) [Compound 101], the pIC50 is 7.70 in the assay on WT=HIVHXB2, 7.66 in assay [1], 7.51 in assay [3] and 7.26 in assay [4]. In addition, the pKi on mutant HIV PR (Mutant 8) was above 9.52; in assay [2], above 9.00; at mutant HIV PR (Mutant 9), 9.72; at wild type HIV PR, 9.96.
Consider `CC(C)CN(CC(O)C(Cc1ccccc1)NC(=O)OC1COC2OCCC12)S(=O)(=O)c1ccc2c(c1)C(=CNCC(F)(F)C(F)(F)C(F)(F)F)C(=O)N2` (stereo not shown) [Compound 125], for which the pIC50 in the assay with WT=HIVHXB2 is 7.85; in assay [1] it was 7.62; in assay [3], 7.43; in assay [4], 7.41. The negative-log Ki (pKi) on mutant HIV PR (Mutant 8) was above 9.52; in assay [2], 8.92; at mutant HIV PR (Mutant 9), 9.77; on wild type HIV PR, above 10.00.
Take `CC(C)CN(CC(O)C(Cc1ccccc1)NC(=O)OC1COC2OCCC12)S(=O)(=O)c1ccc2c(c1)C(=CNCC1CCCCC1)C(=O)N2` (stereo not shown) [Compound 72, [1-Benzyl-3-({3-[(cyclohexylmethyl-amino)-methylene]-2-oxo-2,3-dihydro-1H-indole-5-sulfonyl}-isobutyl-amino)-2-hydroxy-propyl]-carbamic acid hexahydro-furo[2,3-b]furan-3-yl ester]: the negative logarithm of the IC50 (pIC50) with WT=HIVHXB2 is 8.01; in assay [1], 8.05; in assay [3], 7.57; in assay [4], 7.40. Besides, the negative-log Ki (pKi) on mutant HIV PR (Mutant 8) is above 9.52; in assay [2] it was above 9.00; on mutant HIV PR (Mutant 9) it was above 10.00; at wild type HIV PR it was above 10.00.
`CC(C)CN(CC(O)C(Cc1ccccc1)NC(=O)OC1COC2OCCC12)S(=O)(=O)c1ccc2c(c1)C(=CNC1CCC1)C(=O)N2` (stereo not shown) [Compound 114]: the negative logarithm of the IC50 (pIC50) in the assay on WT=HIVHXB2 was 7.77; in assay [1] it was 7.51; in assay [3] it was 7.52; in assay [4], 6.94. The negative-log Ki (pKi) on mutant HIV PR (Mutant 8) was above 9.52; in assay [2], 8.92; on mutant HIV PR (Mutant 9), 9.82; on wild type HIV PR, above 10.00.
Turning to `CNC(C)=C1C(=O)Nc2ccc(S(=O)(=O)N(CC(C)C)CC(O)C(Cc3ccccc3)NC(=O)OC3COC4OCCC34)cc21` (stereo not shown) [Compound 41, (1-Benzyl-2-hydroxy-3-{isobutyl-[3-(1-methylamino-ethylidene)-2-oxo-2,3-dihydro-1H-indole-5-sulfonyl]-amino}-propyl)-carbamic acid hexahydro-furo[2,3-b]furan-3-yl ester], the pIC50 in the assay on WT=HIVHXB2 is 8.00; in assay [1] it was 7.77; in assay [3] it was 7.54; in assay [4] it was 7.25. Further, the negative-log Ki (pKi) at mutant HIV PR (Mutant 8) is above 9.52; in assay [2], above 9.00; at mutant HIV PR (Mutant 9), above 10.00; on wild type HIV PR, above 10.00.
With `CC(C)CNC=C1C(=O)Nc2ccc(S(=O)(=O)N(CC(C)C)CC(O)C(Cc3ccccc3)NC(=O)OC3COC4OCCC34)cc21` (stereo not shown) [Compound 60, (1-Benzyl-2-hydroxy-3-{isobutyl-[3-(isobutylamino-methylene)-2-oxo-2,3-dihydro-1H-indole-5-sulfonyl]-amino}-propyl)-carbamic acid hexahydro-furo[2,3-b]furan-3-yl ester], the negative logarithm of the IC50 (pIC50) in the assay with WT=HIVHXB2 is 8.12; in assay [1] it was 8.02; in assay [3], 7.80; in assay [4], 7.48. The pKi on mutant HIV PR (Mutant 8) was above 9.52; in assay [2], above 9.00; on mutant HIV PR (Mutant 9) it was 9.82; at wild type HIV PR, above 10.00.
Turning to `CC(C)CN(CC(O)C(Cc1ccccc1)NC(=O)OC1COC2OCCC12)S(=O)(=O)c1ccc2c(c1)C(=CNC1CCCCC1)C(=O)N2` (stereo not shown) [Compound 107], the pIC50 in the assay on WT=HIVHXB2 was 7.89; in assay [1], 7.55; in assay [3] it was 7.41; in assay [4], 6.96. The negative-log Ki (pKi) on mutant HIV PR (Mutant 8) was above 9.52; in assay [2] it was 8.92; on mutant HIV PR (Mutant 9), 9.68; at wild type HIV PR, above 10.00.
As for `CC(C)CN(CC(O)C(Cc1ccccc1)NC(=O)OC1COC2OCCC12)S(=O)(=O)c1ccc2c(c1)C(=CNCCCCc1ccccc1)C(=O)N2` (stereo not shown) [Compound 78, [1-Benzyl-2-hydroxy-3-(isobutyl-{2-oxo-3-[(4-phenyl-butylamino)-methylene]-2,3-dihydro-1H-indole-5-sulfonyl}-amino)-propyl]-carbamic acid hexahydro-furo[2,3-b]furan-3-yl ester], the pIC50 is 7.96 in the assay with WT=HIVHXB2, 7.77 in assay [1], 7.26 in assay [3] and 6.98 in assay [4]. Also, the negative-log Ki (pKi) is above 9.52 at mutant HIV PR (Mutant 8), above 9.00 in assay [2], above 10.00 at mutant HIV PR (Mutant 9) and above 10.00 at wild type HIV PR.
